Laboratory results published in the NIST ThermoML archive (doi:10.1016/j.jct.2017.07.034).

Assays:
[1] = 99.6 kPa, Liquid, Vibrating tube method
[2] = mn = molality of the nth substance listed, in mol/kg; details: 99.6 kPa, Liquid, Vibrating tube method

[2H]O[2H] [water-d2]
[1]
Details	mass density [kg/m3]
278.15 K	1105.52
288.15 K	1105.78
298.15 K	1104.34
308.15 K	1101.65
318.15 K	1097.87

O [water] + CCN1C(=O)N(C)[C@@H]2[C@H]1N(C)C(=O)N2CC
Details	mass density [kg/m3]
[2], 278.15 K, m2 = 0	999.964

[2H]O[2H] [water-d2] + CCN1C(=O)N(C)[C@@H]2[C@H]1N(C)C(=O)N2CC
[2], m2 = 0
Details	mass density [kg/m3]
278.15 K	1105.52
288.15 K	1105.78
298.15 K	1104.34
308.15 K	1101.65
318.15 K	1097.87

CCN1C(=O)N(C)[C@@H]2[C@H]1N(C)C(=O)N2CC + O
mass density [kg/m3], [2]
Details	m1 = 0.01976	m1 = 0.04272	m1 = 0.06009	m1 = 0.07765	m1 = 0.1094	m1 = 0.136	m1 = 0.155	m1 = 0.1749	m1 = 0.1935
278.15 K	1000.71	1001.58	1002.23	1002.88	1004.07	1005.05	1005.75	1006.48	1007.16
288.15 K	999.821	1000.65	1001.28	1001.91	1003.04	1003.98	1004.64	1005.34	1005.98
298.15 K	997.745	998.551	999.157	999.764	1000.85	1001.76	1002.4	1003.07	1003.68
308.15 K	994.713	995.494	996.08	996.672	997.724	998.597	999.219	999.861	1000.46
318.15 K	990.876	991.636	992.207	992.779	993.803	994.654	995.256	995.879	996.461

CCN1C(=O)N(C)[C@@H]2[C@H]1N(C)C(=O)N2CC + [2H]O[2H]
mass density [kg/m3], [2]
Details	m1 = 0.02067	m1 = 0.03855	m1 = 0.06093	m1 = 0.08301	m1 = 0.09921	m1 = 0.1206	m1 = 0.1402	m1 = 0.159	m1 = 0.1743
278.15 K	1105.97	1106.36	1106.84	1107.32	1107.67	1108.14	1108.56	1108.97	1109.3
288.15 K	1106.17	1106.51	1106.94	1107.36	1107.67	1108.07	1108.44	1108.8	1109.08
298.15 K	1104.7	1105	1105.38	1105.75	1106.03	1106.39	1106.71	1107.03	1107.28
308.15 K	1101.97	1102.24	1102.58	1102.91	1103.16	1103.47	1103.76	1104.04	1104.28
318.15 K	1098.15	1098.4	1098.71	1099.01	1099.23	1099.52	1099.78	1100.04	1100.24
